Data taken from PMC3539767 (Bioorganic & medicinal chemistry letters, 2012).

Columns and labels:
rat mGlu5 = rat mGlu5 (Rattus norvegicus, UniProt P31424); assay: calcium mobilization PAM assay, high-expressing rat mGlu5 HTS cell line; assay type: cell-based; conditions: for % Glu Max (rmGlu5): rat mGlu5 cell line; for allosteric agonist activity: rat mGlu5 (ago-PAM); for mGlu5 PAM activity: rat mGlu5, high expressing rat cell line
human mGlu5 = human mGlu5 (Homo sapiens, UniProt P41594); assay: PAM assay in lower expressing human mGlu5 cell line; assay type: cell-based
mGlu5 MPEP site = mGlu5 MPEP site (Rattus norvegicus, UniProt P31424); assay: [3H]-methoxyPEPy radioligand displacement; assay type: binding
[1] = rat plasma protein binding; assay type: in vitro ADME
[2] = human plasma protein binding; assay type: in vitro ADME
[3] = test system: 68 GPCRs, ion channels and transporters; assay: Ricerca radioligand binding panel; conditions: at 10 μM; 68 targets
Ca = assay: cardiovascular safety ion channel panel, Ca; assay type: biochemical; conditions: read-out: IC50 Ca; functional activity
Na = assay: cardiovascular safety ion channel panel, Na; assay type: biochemical; conditions: read-out: IC50 Na; functional activity
[4] = membranes isolated from rmGlu5, up to 30 μM compound

Chain of human mGlu5 (P41594 21-1212): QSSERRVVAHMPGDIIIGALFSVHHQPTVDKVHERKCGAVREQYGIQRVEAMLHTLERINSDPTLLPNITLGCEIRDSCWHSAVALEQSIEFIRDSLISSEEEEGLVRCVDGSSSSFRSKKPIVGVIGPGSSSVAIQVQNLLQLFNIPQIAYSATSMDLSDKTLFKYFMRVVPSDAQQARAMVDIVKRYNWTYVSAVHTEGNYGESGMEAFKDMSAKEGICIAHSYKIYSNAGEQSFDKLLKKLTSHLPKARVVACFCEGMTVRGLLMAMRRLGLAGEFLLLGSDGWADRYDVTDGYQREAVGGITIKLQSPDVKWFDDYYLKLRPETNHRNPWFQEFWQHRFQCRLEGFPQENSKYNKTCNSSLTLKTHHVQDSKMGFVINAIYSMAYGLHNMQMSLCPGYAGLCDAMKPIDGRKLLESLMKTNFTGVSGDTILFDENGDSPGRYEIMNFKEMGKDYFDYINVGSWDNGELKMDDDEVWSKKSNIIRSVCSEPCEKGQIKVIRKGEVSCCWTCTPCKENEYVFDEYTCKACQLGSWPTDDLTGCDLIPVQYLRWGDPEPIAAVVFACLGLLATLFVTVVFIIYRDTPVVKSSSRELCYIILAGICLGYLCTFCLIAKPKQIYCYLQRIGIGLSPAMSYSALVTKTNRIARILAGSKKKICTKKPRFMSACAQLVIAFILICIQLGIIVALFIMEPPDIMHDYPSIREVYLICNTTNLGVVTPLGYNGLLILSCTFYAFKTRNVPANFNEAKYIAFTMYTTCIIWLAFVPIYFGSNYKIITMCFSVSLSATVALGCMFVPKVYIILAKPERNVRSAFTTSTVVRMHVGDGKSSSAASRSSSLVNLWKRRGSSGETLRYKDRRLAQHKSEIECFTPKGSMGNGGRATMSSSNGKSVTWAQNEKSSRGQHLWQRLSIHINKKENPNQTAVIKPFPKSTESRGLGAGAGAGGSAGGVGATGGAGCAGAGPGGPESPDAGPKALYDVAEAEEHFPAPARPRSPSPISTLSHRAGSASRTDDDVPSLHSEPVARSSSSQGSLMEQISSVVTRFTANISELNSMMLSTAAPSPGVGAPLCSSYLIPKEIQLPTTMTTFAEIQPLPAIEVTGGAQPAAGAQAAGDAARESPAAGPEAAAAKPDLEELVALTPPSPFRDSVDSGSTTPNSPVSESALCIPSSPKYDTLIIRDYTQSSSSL
Chain of rat mGlu5 (P31424 21-1203): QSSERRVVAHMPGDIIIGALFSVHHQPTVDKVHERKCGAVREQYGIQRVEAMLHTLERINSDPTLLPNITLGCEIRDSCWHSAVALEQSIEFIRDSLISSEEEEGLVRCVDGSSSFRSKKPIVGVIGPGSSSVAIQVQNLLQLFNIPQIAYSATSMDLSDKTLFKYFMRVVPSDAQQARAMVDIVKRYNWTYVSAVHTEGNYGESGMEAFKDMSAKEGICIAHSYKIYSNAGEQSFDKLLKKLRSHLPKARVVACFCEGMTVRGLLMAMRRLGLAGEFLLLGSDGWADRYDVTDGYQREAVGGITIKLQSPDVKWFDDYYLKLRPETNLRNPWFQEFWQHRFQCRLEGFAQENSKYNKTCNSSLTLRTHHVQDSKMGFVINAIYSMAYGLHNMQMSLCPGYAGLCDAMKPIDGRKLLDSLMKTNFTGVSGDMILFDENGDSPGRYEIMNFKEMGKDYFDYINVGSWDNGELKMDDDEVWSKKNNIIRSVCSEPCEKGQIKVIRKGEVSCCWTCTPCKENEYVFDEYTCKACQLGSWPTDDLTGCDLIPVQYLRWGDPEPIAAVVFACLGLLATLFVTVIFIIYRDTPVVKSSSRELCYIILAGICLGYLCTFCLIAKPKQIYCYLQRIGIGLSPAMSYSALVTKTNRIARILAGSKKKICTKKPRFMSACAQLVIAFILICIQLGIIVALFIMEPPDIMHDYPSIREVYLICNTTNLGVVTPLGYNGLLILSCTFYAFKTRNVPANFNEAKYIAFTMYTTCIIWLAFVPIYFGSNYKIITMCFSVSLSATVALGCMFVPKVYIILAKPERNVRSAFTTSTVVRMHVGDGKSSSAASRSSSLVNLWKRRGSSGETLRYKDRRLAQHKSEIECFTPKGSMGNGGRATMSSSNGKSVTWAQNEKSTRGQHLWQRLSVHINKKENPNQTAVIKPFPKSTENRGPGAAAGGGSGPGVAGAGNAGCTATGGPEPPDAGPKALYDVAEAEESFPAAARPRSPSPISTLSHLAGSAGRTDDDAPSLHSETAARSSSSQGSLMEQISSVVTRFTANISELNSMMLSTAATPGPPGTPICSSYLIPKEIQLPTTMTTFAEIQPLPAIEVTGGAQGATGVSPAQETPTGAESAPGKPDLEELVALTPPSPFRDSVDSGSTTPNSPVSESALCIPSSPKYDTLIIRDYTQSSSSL
Chain of mGlu5 MPEP site (P31424 21-1203): as above

CS(=O)(=O)N(CC(=O)Nc1cccnc1F)c1ccccc1Cl [15c]
% Glu Max (rmGlu5) (rat mGlu5): 64 % Glu Max | % Glu Max (hmGlU5) (human mGlu5): 42 % Glu Max

CS(=O)(=O)N(CC(=O)Nc1cccc(Cl)c1)c1ccccc1Cl [compound 9]
EC50 (rat mGlu5): 0.098 µM | allosteric agonist activity (rat mGlu5): strong allosteric agonist activity | fold shift (rat mGlu5; rat mGlu5, value for 15a estimated because of agonist activity): 7.9 fold | % Glu Max (rmGlu5) (rat mGlu5): 74 % Glu Max | % Glu Max (hmGlU5) (human mGlu5): 63 % Glu Max

CS(=O)(=O)N(CC(=O)Nc1ccccc1)c1ccccc1Cl [15a]
allosteric agonist activity (rat mGlu5): strong allosteric agonist activity | % Glu Max (rmGlu5) (rat mGlu5): 61 % Glu Max | % Glu Max (hmGlU5) (human mGlu5): 77 % Glu Max

O=S(=O)(c1ccc(F)cc1)N1CCC[C@H](c2nc(-c3ccc(F)cc3)no2)C1 [compound 26]
mGlu5 PAM activity (rat mGlu5): weak to moderately active PAMs | mGlu5 PAM activity (human mGlu5): weak PAM | displacement of [3H]-methoxyPEPy (mGlu5 MPEP site; [4]): no displacement

CS(=O)(=O)N(CC(=O)NCC1CC1)c1cc(C(F)(F)F)ccc1Cl [compound 24]
mGlu5 PAM activity (rat mGlu5): moderately potent | mGlu5 PAM activity (human mGlu5): moderately potent | displacement of [3H]-methoxyPEPy (mGlu5 MPEP site; in words): did not displace | plasma protein binding [1]: significantly reduced | plasma protein binding [2]: significantly reduced | inhibition in Ricerca radioligand binding panel [3]: < 50 % inhibition | IC50 (Ca): > 10 µM | IC50 (Na): > 10 µM

O=S(=O)(c1ccc(C#Cc2cccc(F)c2)cc1)N1CCOCC1 [compound 25]
mGlu5 PAM activity (rat mGlu5): weak to moderately active PAMs | displacement of [3H]-methoxyPEPy (mGlu5 MPEP site; [4]): no displacement

CS(=O)(=O)N(CC(=O)Nc1ccc(F)cn1)c1ccccc1Cl [15b]
% Glu Max (rmGlu5) (rat mGlu5): 66 % Glu Max
